Reference: patent US6995182B2, “1-sulfonyl pyrrolidine derivatives” (Hoffmann-La Roche Inc., priority 2000, dated 2006)

Tests used:
rat mGlu 1a receptor = target: T1, rat mGlu 1a receptor (Rattus norvegicus, UniProt P23385); assay: [Ca2+]i measurements (FLIPR, Fluo-3 AM) on mGlu 1a transfected EBNA cells; type: cell-based; details: rat mGlu 1a receptor transiently transfected into EBNA cells, agonist activity
T1 construct: expressed in transfected cells; host or cells: EBNA cells (transient transfection)
T1 sequence (P23385 19-1199): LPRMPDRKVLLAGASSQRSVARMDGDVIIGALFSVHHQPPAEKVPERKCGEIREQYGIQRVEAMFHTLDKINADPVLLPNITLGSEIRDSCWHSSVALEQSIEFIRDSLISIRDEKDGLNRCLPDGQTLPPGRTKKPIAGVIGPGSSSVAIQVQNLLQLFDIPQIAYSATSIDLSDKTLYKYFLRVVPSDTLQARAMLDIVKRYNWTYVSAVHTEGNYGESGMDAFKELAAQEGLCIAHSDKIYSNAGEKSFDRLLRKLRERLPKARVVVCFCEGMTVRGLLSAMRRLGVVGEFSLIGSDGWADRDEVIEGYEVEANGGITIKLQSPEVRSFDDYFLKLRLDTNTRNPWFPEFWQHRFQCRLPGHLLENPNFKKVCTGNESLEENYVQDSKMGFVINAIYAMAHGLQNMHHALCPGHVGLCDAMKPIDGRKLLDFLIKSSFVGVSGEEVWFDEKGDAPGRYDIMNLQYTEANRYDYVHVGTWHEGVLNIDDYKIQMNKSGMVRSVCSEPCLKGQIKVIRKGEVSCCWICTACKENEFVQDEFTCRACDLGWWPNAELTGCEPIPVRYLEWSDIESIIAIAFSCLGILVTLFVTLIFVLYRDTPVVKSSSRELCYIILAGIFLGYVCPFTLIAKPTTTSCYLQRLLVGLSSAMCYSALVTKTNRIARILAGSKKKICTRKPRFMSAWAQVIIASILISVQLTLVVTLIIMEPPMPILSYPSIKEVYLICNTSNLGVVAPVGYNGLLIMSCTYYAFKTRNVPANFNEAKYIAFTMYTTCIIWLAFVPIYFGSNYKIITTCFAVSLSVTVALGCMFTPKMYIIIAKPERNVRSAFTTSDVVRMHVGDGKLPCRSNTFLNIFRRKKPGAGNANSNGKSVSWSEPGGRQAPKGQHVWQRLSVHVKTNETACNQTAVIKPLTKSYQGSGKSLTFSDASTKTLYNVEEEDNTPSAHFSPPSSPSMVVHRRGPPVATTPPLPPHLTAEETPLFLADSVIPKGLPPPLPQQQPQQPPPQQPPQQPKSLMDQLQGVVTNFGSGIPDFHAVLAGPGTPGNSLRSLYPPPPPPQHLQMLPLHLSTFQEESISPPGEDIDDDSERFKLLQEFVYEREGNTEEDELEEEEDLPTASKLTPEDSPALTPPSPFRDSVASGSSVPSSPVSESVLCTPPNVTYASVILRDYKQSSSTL
Experimental: The pharmacological activity of the compounds was tested using the following method: cDNA encoding rat mGlu 1a receptor was transiently transfected into EBNA cells using a procedure described by E.-J. Schlaeger and K. Christensen (Transient gene expression in mammalian cells grown in serum-free suspension culture; Cytotechnology, 15: 1–13, 1998). [Ca^2+]i measurements were performed on mGlu 1a transfected EBNA cells after incubation of the cells with Fluo-3 AM (0.5 μM final concentration) for 1 hour at 37° C. followed by 4 washes with assay buffer (DMEM supplemented with Hank's salt and 20 mM HEPES. [Ca^2+]i measurements were done using a fluorometric imaging plate reader (FLIPR, Molecular Devices Corporation, La Jolla, Calif., USA). When compounds were evaluated as antagonists they were tested against 10 μM glutamate as agonist.
The inhibition (antagonists) or activation (agonists) curves were fitted with a four parameter logistic equation giving EC50, IC50, and Hill coefficient using the iterative non linear curve fitting software Origin (Microcal Software Inc., Northampton, Mass., USA).

EC50 (rat mGlu 1a receptor)	melting point	SMILES
4.4 µM	128 °C	Cc1ccc(S(=O)(=O)N2[C@@H](C#N)CC[C@H]2c2ccc(F)cc2)cc1 (racemic) [Example 4, (2RS,5SR)-5-(4-Fluoro-phenyl)-1-(toluene-4-sulfonyl)-pyrrolidine-2-carbonitrile]
1.4 µM	130 °C	Cc1ccc(S(=O)(=O)N2[C@@H](CCl)CC[C@H]2c2ccc(F)cc2)cc1 (racemic) [Example 5, (2RS,5SR)-2-Chloromethyl-5-(4-fluoro-phenyl)-1-(toluene-4-sulfonyl)-pyrrolidine]
0.21 µM	154 °C	Cc1ccc(S(=O)(=O)N2[C@@H](CNC(=O)C3CC3)CC[C@H]2c2ccc(F)cc2)cc1 (racemic) [Example 16, (2RS,5SR)-Cyclopropanecarboxylic acid [5-(4-fluoro-phenyl)-1-(toluene-4-sulfonyl)-pyrrolidin-2-yl-methyl]-amide]
0.36 µM		Cc1ccc(S(=O)(=O)N2[C@@H](Cc3nnn(C)n3)CC[C@H]2c2ccc(F)cc2)cc1 (racemic) [Example 39, (2RS,5SR)-5-[5-(4-Fluoro-phenyl)-1-(toluene-4-sulfonyl)-pyrrolidin-2-yl-methyl]-2-methyl-2H-tetrazole]
	103 °C	Cc1ccc(S(=O)(=O)N2[C@@H](Cc3nc(C)no3)CC[C@H]2c2ccc(F)cc2)cc1 (racemic) [Example 96, (2RS,5SR)-5-[5-(4-Fluoro-phenyl)-1-(toluene-4-sulfonyl)-pyrrolidin-2-ylmethyl]-3-methyl-[1,2,4]oxadiazole]
	129 °C	Cc1ccc(S(=O)(=O)N2[C@@H](CCO)CC[C@H]2c2ccc(F)cc2)cc1 (racemic) [Example 98, (2RS,5SR)-2-[5-(4-Fluoro-phenyl)-1-(toluene-4-sulfonyl)-pyrrolidin-2-yl]-ethanol]
0.2 µM		Cc1ccc(S(=O)(=O)N2C(CCCO)CC[C@H]2c2ccc(F)cc2)cc1 (stereo in doubt) [Example 64, (2S,5S)-3-[5-(4-Fluoro-phenyl)-1-(toluene-4-sulfonyl)-pyrrolidin-2-yl]-propan-1-ol]
	140 °C	Cc1ccc(S(=O)(=O)N2[C@@H](CO)CC[C@H]2c2ccc(F)cc2)cc1 [Example 58, (2R,5S)-[5-(4-Fluoro-phenyl)-1-(toluene-4-sulfonyl)-pyrrolidin-2-yl]-methanol]
	96 °C	Cc1ccc(S(=O)(=O)N2[C@@H](CCCO)CC[C@H]2c2ccc(F)cc2)cc1 [Example 64, (2S,5S)-3-[5-(4-Fluoro-phenyl)-1-(toluene-4-sulfonyl)-pyrrolidin-2-yl]-propan-1-ol]

More lines, now with the values behind:

SMILES	EC50 (rat mGlu 1a receptor)	melting point
Cc1ccc(S(=O)(=O)N2[C@@H](Cc3noc(C)n3)CC[C@H]2c2ccc(F)cc2)cc1 (racemic) [Example 21, (2RS,5SR)-3-[5-(4-Fluoro-phenyl)-1-(toluene-4-sulfonyl)-pyrrolidin-2-yl-methyl]-5-methyl-[1,2,4]oxadiazole]	0.63 µM	
Cc1ccc(S(=O)(=O)N2[C@H](CCCNS(C)(=O)=O)CC[C@@H]2c2ccc(F)cc2)cc1 (racemic) [Example 77, (2RS,5RS)-N-{3-[5-(4-Fluoro-phenyl)-1-(toluene-4-sulfonyl)-pyrrolidin-2-yl]-propyl}-methanesulfonamide]	0.16 µM	123 °C
Cc1ccc(S(=O)(=O)N2CCCC2CCCNC(=O)C2CC2)cc1 (racemic) [Example 87, (RS)-Cyclopropanecarboxylic acid {3-[1-(toluene-4-sulfonyl)-pyrrolidin-2-yl]-propyl}-amide]	0.98 µM	
Cc1ccc(S(=O)(=O)N2[C@@H](Cc3nc(C4CC4)no3)CC[C@H]2c2ccc(F)cc2)cc1 (racemic) [Example 95, (2RS,5SR)-3-Cyclopropyl-5-[5-(4-fluoro-phenyl)-1-(toluene-4-sulfonyl)-pyrrolidin-2-ylmethyl]-[1,2,4]oxadiazole]		102 °C
Cc1ccc(S(=O)(=O)N2[C@@H](CCn3cccn3)CC[C@H]2c2ccc(F)cc2)cc1 (racemic) [Example 100, (2RS,5SR)-1-{2-[5-(4-Fluoro-phenyl)-1-(toluene-4-sulfonyl)-pyrrolidin-2-yl]-ethyl}-1H-pyrazole]		121 °C
Cc1ccc(S(=O)(=O)N2[C@@H](CCn3ncnn3)CC[C@H]2c2ccc(F)cc2)cc1 (racemic) [Example 101, (2RS,5SR)-2-{2-[5-(4-Fluoro-phenyl)-1-(toluene-4-sulfonyl)-pyrrolidin-2-yl]-ethyl}-2H-tetrazole]	1.47 µM	
Cc1ccc(S(=O)(=O)N2[C@H](CCCc3nc(C)cc(C)n3)CC[C@@H]2c2ccc(F)cc2)cc1 (racemic) [Example 123, (2RS,5RS)-2-{3-[5-(4-Fluoro-phenyl)-1-(toluene-4-sulfonyl)-pyrrolidin-2-yl]-propyl}-4,6-dimethyl-pyrimidine]	1.28 µM	
Cc1ccc(S(=O)(=O)N2[C@@H](CCc3nnco3)CC[C@H]2c2ccc(F)cc2)cc1 (racemic) [Example 127, (2RS,5SR)-2-{2-[5-(4-Fluoro-phenyl)-1-(toluene-4-sulfonyl)-pyrrolidin-2-yl]-ethyl}-[1,3,4]oxadiazole]		138 °C
Cc1ccc(S(=O)(=O)N2[C@@H](c3nnco3)CC[C@H]2c2ccc(F)cc2)cc1 (racemic) [Example 137, (2RS,5SR)-2-[5-(4-Fluoro-phenyl)-1-(toluene-4-sulfonyl)-pyrrolidin-2-yl]-[1,3,4]oxadiazole]	1.24 µM	
Cc1ccc(S(=O)(=O)N2[C@H](CCCCn3ncnn3)CC[C@@H]2c2ccc(F)cc2)cc1 (racemic) [Example 143, (2RS,5RS)-2-{4-[5-(4-Fluoro-phenyl)-1-(toluene-4-sulfonyl)-pyrrolidin-2-yl]-butyl}-2H-tetrazole]	0.35 µM	
Cc1ccc(S(=O)(=O)N2C(C3=NOC(C)N3)CCC2c2ccc(F)cc2)cc1 (stereo not shown) [Example 28, 3-[5-(4-Fluoro-phenyl)-1-(toluene-4-sulfonyl)-pyrrolidin-2-yl]-5-methyl-4,5-dihydro-[1,2,4]oxadiazole]		68 °C
Cc1ccc(S(=O)(=O)N2[C@@H](CCCn3ccnc3)CC[C@H]2c2ccc(F)cc2)cc1 [Example 116, (2S,5S)-1-{3-[5-(4-Fluoro-phenyl)-1-(toluene-4-sulfonyl)-pyrrolidin-2-yl]-propyl}-1H-imidazole]	0.22 µM	
